Reference: patent publication US8791099B2, “Transition metal complexes of corroles for preventing cardiovascular diseases or disorders” (Technion Research and Development Foundation Ltd., priority 2007, dated 2014)

What was measured:
[1] = system: mouse peritoneal macrophages (MPM); assay: Cholesterol efflux from MPM of treated E^0 mice; conditions: drinking water 0.04 mM (8 mg/Kg/day), 14 weeks
Description: Mouse peritoneal macrophages were incubated with [^3H]-labeled cholesterol for 1 h at 37° C. followed by cell wash in ice-cold PBS (3×) and further incubation in the absence or presence of 100 μg of human HDL protein/ml for 3 h at 37° C. Cellular and medium [^3H]-labels were quantitated and HDL-mediated cholesterol efflux was calculated as the ratio of [^3H]-label in the medium/[^3H]-label in the medium+[^3H]-label in cells.

[2] = system: mouse peritoneal macrophages (MPM); assay: Cholesterol synthesis by MPM of treated E^0 mice; conditions: drinking water 0.04 mM (8 mg/Kg/day), 14 weeks
Description: Cellular cholesterol biosynthesis was assayed after incubation of macrophages (3×10^6 well^−1) overnight with DMEM containing 2% BSA followed by additional 3 h of incubation at 37° C. with [^3H]-acetate (3.3 μCi/ml). Cellular lipids were extracted with hexane:isopropanol (3:2, v:v), and the upper phase was dried under nitrogen. The lipids were then separated by TLC using an eluent of hexane:ether:acetic acid (130:30:1.5, v:v:v). Unesterified cholesterol spots were visualized by iodine vapor (by using standard for identification) and counted with β-counter.

J-774 macrophages [3] = assay: Cholesterol efflux from J-774 macrophages by serum of treated E^0 mice; conditions: drinking water 0.04 mM (8 mg/Kg/day), 14 weeks
Description: J-774 macrophages were incubated with [^3H]-labeled cholesterol for 1.5 h at 37° C. followed by cell wash in ice-cold PBS (3×) and further incubation in the presence of 15 μL mice serum for 3 h at 37° C. Cellular and medium [^3H]-labels were quantitated and HDL-mediated cholesterol efflux was calculated as the ratio of [^3H]-label in the medium/[^3H]-label in the medium+[^3H]-label in cells.

HDL = assay: Oxidation of HDL by copper sulfate; format: biochemical, human; conditions: for Effect on conjugated dienes formation in HDL: 2.5 μM corrole, 5 μM CuSO4
Description: Oxidation was initiated by addition of a freshly prepared CuSO4 solution (5 μM) and incubation at 37° C. under air in a shaking water bath was continued for 2 h (LDL) or 5 h (HDL). Lipoprotein oxidation was determined by measuring the amount of TBARS (Aviram et al. 2001).
Conjugated dienes formation was continuously monitored for 165 min while TBARS and lipid peroxides (Aviram et al. 2001) were measured after 15, 30, 45, 60, 75, 90, 120 and 165 minutes.
The results for the copper-induced oxidation of HDL were very similar to the results obtained for LDL. […] It should be mentioned that the damage measured for HDL is lower than that measured for LDL, due to the lower lipid content of HDL.

J-774 macrophages [4] = assay: Corrole-mediated cholesterol efflux from J-774 macrophages; format: cell-based, Murine; conditions: lipoprotein-free medium, 10, 25 or 50 μM, 4 hour, dose-dependent
Description: Murine J-774 cells (1×10^6/mL) were plated in 24-well plates for 24 hours, then washed and incubated for 1 hour in serum-free DMEM that contained ^3H-cholesterol (2 μCi/mL) and BSA (0.2%). […] After a 4-hour incubation at 37° C. to permit efflux of ^3H-cholesterol from the cells into the medium, 500 μL of the medium was collected. The cells were washed with PBS, 1 mL of 0.1 N NaOH was added to the cells and 500 μL was collected the next day. Medium and cellular ^3H-cholesterol were determined by liquid scintillation counting (LSC). […] Corrole-mediated cholesterol efflux was calculated after subtraction of the non-specific efflux obtained in cells incubated in the absence of corroles.
A still further indication for a favorable alteration of cellular cholesterol transport by metallocorroles was obtained by studying cholesterol efflux from J-774 macrophages in a lipoprotein-free medium. The iron complex (but not the manganese and gallium complexes) of corrole 1 increased the cholesterol efflux by up to 20% in a dose-dependent fashion.

LDL = assay: Interaction of LDL with corroles (absorbance before/after dialysis); format: binding, human; conditions: 10 μM corrole, 100 mg LDL protein/L (0.2 μM), dialyzed against PBS
Description: The solutions where extensively dialyzed against PBS, and the electronic spectrum was measured again. The difference in the absorbance can be used to calculate the number of corrole molecules bound to LDL [HDL].
Possible interactions between the corroles and LDL were investigated prior to the examinations of the effect of the corroles on LDL oxidation. This was performed by recording the absorbance spectrum of 10 μM aqueous corrole solutions before and after addition of 100 mg of LDL protein/L (corresponding to a molar concentration of 0.2 μM). […] This large number is quite reasonable since the LDL particle is very large and may not encompass specific binding sites, but rather the amphiphilic nature of the examined corroles renders them ideal for positioning in the phospholipid monolayer of the LDL, with the hydrophilic head groups sticking out toward the aqueous phase, as previously proposed for amphiphilic porphyrins (Camejo et al., 1998; Bonneau et al., 2004). In any case, no corrole is expected to be free in solution at the maximal corrole concentration used in the forthcoming experiments, namely, 5 μM per 100 mg of LDL protein/L (about 25 corrole molecules per LDL particle).

What does the source list for `O=S(=O)(O)c1cc2[n]3c1C(c1c(F)c(F)c(F)c(F)c1F)=C1C=CC4=[N+]1[Fe-]31[n]3c(cc(S(=O)(=O)O)c3-2)C(c2c(F)c(F)c(F)c(F)c2F)=c2ccc([n]21)=C4c1c(F)c(F)c(F)c(F)c1F` (stereo not drawn) [1-Fe, 5,10,15-tris(pentafluorophenyl)-2,17-bis(sulfonic acid)-corrolato iron(III)]?
Decrease in cholesterol efflux from the E^0 MPM [1]: 20%; Reduction of cholesterol synthesis by MPMs [2]: 76%; Increase in serum-mediated cholesterol efflux from J-774 macrophages (J-774 macrophages [3]): 7%; Effect on conjugated dienes formation in HDL (HDL): completely eliminated their formation; Effect on TBARS formation in HDL (HDL; corrole 2.5 μM and higher, 5 hr after CuSO4): protective effect; Increase of cholesterol efflux from J-774 macrophages (J-774 macrophages [4]): increases; Increase of cholesterol efflux from J-774 macrophages (J-774 macrophages [4]; listed as iron complex): up to 20%; Decrease of absorbance after dialysis (LDL): 10%

How did the “Effect on conjugated dienes formation in HDL” value (HDL) turn out when `O=S(=O)(O)c1cc2[n]3c1C(c1c(F)c(F)c(F)c(F)c1F)=C1C=CC4=[N+]1[Mn-]31[n]3c(cc(S(=O)(=O)O)c3-2)C(c2c(F)c(F)c(F)c(F)c2F)=c2ccc([n]21)=C4c1c(F)c(F)c(F)c(F)c1F` (stereo not drawn) [1-Mn, 5,10,15-tris(pentafluorophenyl)-2,17-bis(sulfonic acid)-corrolato manganese(III)] was run?
The value was “shortened the delay time”.

And the “Increase of TBARS formation in HDL” value (HDL; all concentrations measured, 5 hr after CuSO4)?
The value was “about 2 folds”.

And the “Increase of cholesterol efflux from J-774 macrophages” value (J-774 macrophages [4])?
Its value is “not”.

And the “Decrease of absorbance after dialysis” value (LDL)?
The value was 20%.
